System: 556581-035-R-J1-PDC complex spheroid growth
Experiment: Anticancer human tumor 556581-035-R-J1-PDC patient-derived ovarian carcinoma cell line growth inhibition [AhR]
Settings: for IC50: curve of first compound; for viability, T/C: stronger effect = lower value
Source text: Multicellular complex tumor spheroid response to aryl hydrocarbon receptor antagonists in combination with a variety of drugs and investigational agents in selected tumor cell lines
The current study was undertaken to assess response to aryl hydrocarbon receptor antagonists in combination with standard-of-care drugs and investigational agents in solid tumor complex spheroid models. Complex spheroids include a stromal component modeled by human endothelial cells (HUVEC) and fibroblasts modeled by human mesenchymal stem cells (MSCs). The concentration ranges selected for each drug and investigational agent were based upon clinically achievable concentrations if the clinical Cmax of the agent was known.
Compounds. The drugs and investigational agents: BAY 2416964 (NSC825713), GNF351 (NSC835774), CH-223191 (NSC835775), CPI-455 (NSC825282), aza-TdCyd (NSC777586), decitabine (NSC127716), belinostat (NSC758774), entinostat (NSC756642), pevonedistat (NSC761192), tazemetostat (NSC777109), talazoparib (NSC765396), olaparib (NSC753686), selinexor (NSC780203), nedisertib (M3814, NSC802822), bortezomib (NSC756655), venetoclax (NSC766270), doxorubicin (NSC123127), elimusertib (BAY189344, NSC800525), ceralasertib (AZD6738, NSC777638), TAK-243 (NSC785004), alisertib (NSC759677), etoposide (NSC141540), topotecan (NSC609699), eribulin (NSC707389), gemcitabine (NSC613327), carboplatin (NSC241240), cisplatin (NSC119875), and SN-38 (NSC673596) were obtained from the National Cancer Institute (NCI) Developmental Therapeutics Program Chemical Repository (32). The FDA-approved anticancer drug set is available from the Developmental Therapeutics Program at https://dtp.cancer.gov/organization/dscb/obtaining/available plates.htm. […] The stock solutions were prepared in dimethyl sulfoxide (DMSO, Sigma-Aldrich, St. Louis, MO, cat. D2650), except for the platinum compounds which were prepared in saline (Quality Biological, Gaithersburg, MD, cat. 114-055-101), at 800-fold the tested concentration and stored at -70 degrees C prior to their use. All drugs and investigational agents were tested over a range starting from a high concentration at or near the clinical Cmax and decreasing in half-log increments. If the clinical Cmax for an agent had not been determined, the highest concentration tested was 10 microM (Table 1).
Cell Culture. All cells were maintained in an incubator at 37 degrees C and 5% CO2 with 95% humidity. The PDC lines were cultured according to standard operating procedures established by the NCI PDMR (https://pdmr.cancer.gov). Briefly, all PDCs were thawed and cultured in Matrigel-coated flasks prepared with a working solution of 1X Ham's F-12 nutrient mix, without supplementation (Invitrogen, Waltham, MA, cat. 11765054), 100 U/mL penicillin-streptomycin (Invitrogen, cat. 15140122), and 2.5% Matrigel (Corning Inc., Corning, NY, cat. 354248) for the first three passages. All PDCs were cultured in complete DMEM/F-12 media containing advanced DMEM/F-12 (Invitrogen, cat. 12634028), 4.9% defined fetal bovine serum, heat inactivated (HyClone Laboratories Inc., Logan, UT, cat. SH30070.03HI), 389 ng/mL hydrocortisone (Sigma-Aldrich, cat. H4001), 9.7 ng/mL human EGF recombinant protein (Invitrogen, cat. PHG0313), 23.4 microg/mL adenine (Sigma-Aldrich, cat. A2786), 97.3 U/mL penicillin-streptomycin (Invitrogen, cat. 15140122), 1.9 mM L-glutamine (Invitrogen, cat. 25030081), and 9.7 microM Y-27632 dihydrochloride (Tocris Bioscience, Bristol, United Kingdom, cat. 1254). The PDCs were cultured in complete DMEM/F12 media without 10 microM Y-27632 dihydrochloride for at least two passages prior to the screen. The established cell lines NCI-H1341 and […] were cultured in DMEM/F-12, HEPES (Invitrogen, cat. 11330032), 5% defined fetal bovine serum (HyClone Laboratories Inc., cat. SH30070.03), ITS premix universal culture supplement [insulin (5 microg/mL), transferrin (5 microg/mL), and selenious acid (5 ng/mL)] […]

[1] = second compound 0.1 µM, first compound 0.0316 µM
[2] = second compound 0.1 µM, first compound 0.1 µM
[3] = second compound 0.1 µM, first compound 0.316 µM
[4] = second compound 0.1 µM, first compound 1 µM
[5] = second compound 0.1 µM, first compound 3.16 µM
[6] = second compound 0.1 µM, first compound 10 µM
[7] = second compound 0.316 µM, first compound 0.0316 µM
[8] = second compound 0.316 µM, first compound 0.1 µM
[9] = second compound 0.316 µM, first compound 0.316 µM
[10] = second compound 0.316 µM, first compound 1 µM
[11] = second compound 0.316 µM, first compound 3.16 µM
[12] = second compound 0.316 µM, first compound 10 µM
[13] = second compound 1 µM, first compound 0.0316 µM
[14] = second compound 1 µM, first compound 0.1 µM
[15] = second compound 1 µM, first compound 0.316 µM
[16] = second compound 1 µM, first compound 1 µM
[17] = second compound 1 µM, first compound 3.16 µM
[18] = second compound 1 µM, first compound 10 µM
[19] = second compound 3.16 µM, first compound 0.0316 µM
[20] = second compound 3.16 µM, first compound 0.1 µM
[21] = second compound 3.16 µM, first compound 0.316 µM
[22] = second compound 3.16 µM, first compound 1 µM
[23] = second compound 3.16 µM, first compound 3.16 µM
[24] = second compound 3.16 µM, first compound 10 µM
[25] = second compound 10 µM, first compound 0.0316 µM
[26] = second compound 10 µM, first compound 0.1 µM
[27] = second compound 10 µM, first compound 0.316 µM
[28] = second compound 10 µM, first compound 1 µM
[29] = second compound 10 µM, first compound 3.16 µM
[30] = second compound 10 µM, first compound 10 µM
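Wherever viability, T/C is given: compound exposure lasted 7 days; 100% = DMSO vehicle control growth.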

| SMILES | IC50 (second compound 0.1 µM) [nM] | IC50 (second compound 0.316 µM) [nM] | IC50 (second compound 1 µM) [nM] | IC50 (second compound 3.16 µM) [nM] | IC50 (second compound 10 µM) [nM] | viability, T/C [1] [%] | viability, T/C [2] [%] | viability, T/C [3] [%] | viability, T/C [4] [%] | viability, T/C [5] [%] | viability, T/C [6] [%] | viability, T/C [7] [%] | viability, T/C [8] [%] | viability, T/C [9] [%] | viability, T/C [10] [%] | viability, T/C [11] [%] | viability, T/C [12] [%] | viability, T/C [13] [%] | viability, T/C [14] [%] | viability, T/C [15] [%] | other results |
| --- | --- | --- | --- | --- | --- | --- | --- | --- | --- | --- | --- | --- | --- | --- | --- | --- | --- | --- | --- | --- | --- |
| Nc1ccccc1NC(=O)c1ccc(CNC(=O)OCc2cccnc2)cc1 + CC(CO)NC(=O)c1cc(-c2ccc(Cl)cc2)nn(-c2cnn(C)c2)c1=O | 1340 | 1590 | 1660 | 1440 | 1560 | 96.9 | 102 | 78 | 53.2 | 36.9 | 17.5 | 107 | 91 | 87.1 | 58.7 | 34.9 | 15.4 | 118 | 100 | 77.3 | viability, T/C [16]: 60.8%; viability, T/C [17]: 38.6%; viability, T/C [18]: 17.8%; viability, T/C [19]: 105%; viability, T/C [20]: 102%; viability, T/C [21]: 84.8%; viability, T/C [22]: 58%; viability, T/C [23]: 33.2%; viability, T/C [24]: 20.6%; viability, T/C [25]: 106%; viability, T/C [26]: 103%; viability, T/C [27]: 88.6%; viability, T/C [28]: 62.8%; viability, T/C [29]: 30.4%; viability, T/C [30]: 12.6% |
| O=C(c1cc(Cc2n[nH]c(=O)c3ccccc23)ccc1F)N1CCN(C(=O)C2CC2)CC1 + CC(CO)NC(=O)c1cc(-c2ccc(Cl)cc2)nn(-c2cnn(C)c2)c1=O | > 10000 | > 10000 | > 10000 | > 10000 | > 10000 | 93.7 | 94.6 | 93 | 85.1 | 83.7 | 82.4 | 91.9 | 98 | 93 | 89.3 | 81.4 | 84.3 | 93.9 | 108 | 95.2 | viability, T/C [16]: 95%; viability, T/C [17]: 90.1%; viability, T/C [18]: 73.2%; viability, T/C [19]: 90.2%; viability, T/C [20]: 89.7%; viability, T/C [21]: 94.2%; viability, T/C [22]: 84%; viability, T/C [23]: 81.4%; viability, T/C [24]: 74.4%; viability, T/C [25]: 106%; viability, T/C [26]: 105%; viability, T/C [27]: 85.2%; viability, T/C [28]: 99.5%; viability, T/C [29]: 79.1%; viability, T/C [30]: 77.6% |
